One test concerns Ishikawa. Kind of test: cells. The settings on record: Homo sapiens.
Test [1] addresses T1, Estrogen receptor (Homo sapiens, UniProt Q92731+P03372).
Test [2] deals with T1, Estrogen receptor. As to the kind of experiment: Displacement of [3H]17-beta-estradiol from Estrogen receptor of rabbit uterine tissue. The settings on record: target entry is the homologue from another species. In kind it is protein assay, Oryctolagus cuniculus. (In a radioligand displacement assay an active substance lowers the binding of a labelled ligand.)

Description for Ishikawa: Stimulation of alkaline phosphatase activity in Ishikawa human endometrial adenocarcinoma cells

As for `Oc1ccc2c(c1)OC[C@H](c1ccccc1)[C@@H]2c1ccc(OCCN2CCCCC2)cc1` (racemic), the 50% effective concentration (EC50) with Ishikawa stood at 0.7 nM. The compound further displayed an IC50 at Estrogen receptor [1] of 3.1 nM. As to `C#C[C@]1(O)CC[C@H]2C3CCc4cc(O)ccc4[C@H]3[C@@H](OC)C[C@@]21C` (single isomer, unassigned) [MOXESTROL], the EC50 with Ishikawa was 0.08 nM. On Estrogen receptor [2], the IC50 was determined as 2.9 nM. With `O=C(c1ccc(OCCN2CCCCC2)cc1)c1c(-c2ccc(O)cc2)sc2cc(O)ccc12` [RALOXIFENE], it took 0.04 nM to reach a half-maximal effect in the test on Ishikawa (EC50). In the case of `Cl.Oc1ccc2c(c1)OC[C@H](c1ccccc1)[C@@H]2c1ccc(SCCN2CCCC2)cc1` (racemic), the EC50 with Ishikawa was determined as 0.5 nM. This compound displayed an IC50 against Estrogen receptor [1] of 6.5 nM. For `Oc1ccc2c(c1)OC[C@H](c1ccccc1)[C@@H]2c1ccc(SCCN2CCCCC2)cc1` (racemic), a half-maximal effect in the test on Ishikawa (EC50) was put at 1.8 nM. The concentration for half-maximal inhibition (IC50) against Estrogen receptor [1] is 9.7 nM. The matching figures for `Oc1ccc2c(c1)OC[C@H](c1ccccc1)[C@@H]2c1ccc(OCCN2CCCC2)cc1` (racemic): 0.9 nM and 19 nM. The matching figures for `COc1ccc2c(c1)OC(C)(C)[C@@H](c1ccccc1)[C@@H]2c1ccc(OCCN2CCCC2)cc1` [LEVORMELOXIFENE]: 13 nM and 73 nM. The compound `CC/C(=C(\c1ccc(I)cc1)c1ccc(OCCN2CCCC2)cc1)c1ccccc1` [IDOXIFENE] displayed a concentration for a half-maximal effect (EC50) in the test on Ishikawa of 7 nM. Besides, on Estrogen receptor [1], the IC50 stood at 7.5 nM.

As usually defined, the EC50 is the midpoint of the concentration-response curve. Low readings indicate greater potency, high ones weaker potency. A word on the IC50: it is the midpoint of a concentration-inhibition curve. Lower therefore signals greater potency in that assay.

For the origin of these results see ChEMBL document CHEMBL1135087, “Synthesis and biological evaluation of novel thio-substituted chromanes as high-affinity partial agonists for the estrogen receptor” (Bioorg Med Chem Lett, 2002).
